According to patent US7731994B2, “Pharmaceutical composition for protecting neurons comprising extract of lithospermum erythrothizon SIEB. ET. Zucc or acetylshikonin isolated therefrom as an effective ingredient” (Industry Academic Cooperation Foundation of Kyunghee …, priority 2007, dated 2010):
Entries after “also recorded” stand apart in the source; their conditions may differ.

Tests used:
[1] = system: BV-2 cells activated by lipopolysaccharide; test: NO generation (Griess reagent) in BV-2 cells activated by lipopolysaccharide; type: cell-based; settings: 100 ng/ml lipopolysaccharide
Description: (§1) To investigate the effect of acetylshikonin on the activation of microglia cells which are macrophages in brain, NO generation was measured in BV-2 cells and primary microglia cells which are neuroglia cells, activated by lipopolysaccharide according to the previously reported methods with slight modifications (Min Kim J, et al., Neuroreport, 14(15), pp1941-1944, 2003).
(§2) BV-2 cells (Lab. of Dr. Eui-Ju Choi, Korea University) were maintained in DMEM (Dulbeccols Modified Eagle Medium, Gibco-BRL, England) supplemented with 10% FBS (Fetal Bovine Serum, Gibco-BRL, England) and 1% penicillin-streptomycin (Gibco-BRL, England). To obtain the primary microglia cells, brain cells were separated from the brain extracted from Sprague-Dawley rat (Taconic, Japan) at less than 1 week from the birth and the cells were cultured for approximately 2 weeks in DMEM having the same composition with the one used for BV-2 cell culture in a 75T flask and then the primary microglia cells were recovered. BV-2 cells and the primary microglia cells were distributed into a 96 well plate at the concentration of […] and then cultured in a 37° C., 5% CO2 incubator for overnight. […] OD570 was measured by Elyzerleader (Moleulat Device, USA) and the concentration was calculated by considering the level of sodium nitrite as standard.

[2] = system: primary microglia cells activated by lipopolysaccharide; test: NO generation (Griess reagent) in primary microglia cells activated by lipopolysaccharide; type: cell-based, Sprague-Dawley rat; settings: 100 ng/ml lipopolysaccharide
Description: as §1, §2

[3] = system: rats with local brain ischemia induced by middle cerebral arterial occlusion; test: Defensive effect in rats with local brain ischemia induced by middle cerebral arterial occlusion (TTC staining, infarct volume); type: in vivo, Sprague-dawley male rats; settings: right after and 120 minutes after brain ischemia was induced, MCAo 120 min, 22 hours reperfusion
Description: Sprague-dawley male rats at 8 weeks having the weight of 280 g-300 g were purchased from Samtako, Inc., Korea. The rats were supplied with feed and water enough and adapted to the experimental environment for one week. Middle cerebral arterial occlusion was performed by intraluminal suture method based on the method of Zea longa, et al (Zea longa, et al., Stroke, 20, pp 84-91, 1989). Once middle cerebral artery of a rat is closed, blood flow is interrupted around middle cerebral arterial region so that oxygen and other energy source are exhausted, leading to cell death. In particular, tissue necrosis is observed in the center of the middle cerebral arterial region, striatum and temporal lobe, which is so called 'ischemic core'. Although not middle cerebral arterial region, the neighboring cells begin to be auto-destroyed, which is called '[…] penumbra'. 3 hours after blocking middle cerebral artery, necrosis starts and from 6 hours after blocking, cerebral ischemia is developed. The progress of cerebral ischemia continues for 24 hours after middle cerebral artery was closed for 120 minutes, and on the 3rd day, it reaches the highest degree. To measure the level of cerebral ischemia, it is necessary to measure correlated infarct volume (mm^3). […] Blood sugar and blood gas were measured from the blood sample. […]

iNOS mRNA = test: RT-PCR of iNOS mRNA expression in primary microglia cells activated by lipopolysaccharide; type: cell-based, Sprague-Dawley rat; settings: 100 ng/ml lipopolysaccharide co-treated with 0.1, 1 uM, 24 hours
Description: To investigate the inhibition of iNOS mRNA expression by acetylshikonin, […] was performed.
The primary microglia cells cultured in DMEM supplemented with 10% FBS and 1% penicillin-streptomycin were distributed in a 6 well plate at the concentration of 4×10^6 cells/well, followed by culture for 24 hours. 100 ng/ml of lipopolysaccharide and 0.1, 1 uM of acetylshikonin were co-treated thereto, followed by activation of the cells for 24 hours. The control group was not treated with lipopolysaccaride. After 24 hours of activation, the culture medium was discarded and the cells were washed with cold PBS ([…]), to which trypsin was treated. 1 ml of PBS containing the cells was obtained, followed by centrifugation at 12,000 rpm for 2 minutes to separate the cells. The cells were lysed in RNA separation solution (easyblue) to extract RNA from the cells, followed by centrifugation at 12,000 rpm for 15 minutes. After treating chloroform, centrifugation was performed again at 13,000 rpm for 25 minutes and the supernatant was obtained and washed with isopropanol to extract RNA. cDNA was synthesized using 5 ug of the RNA and 5 μmol of primer at 45° C., followed by PCR. […]

IL-1beta mRNA = test: RT-PCR of IL-1beta mRNA expression in primary microglia cells activated by lipopolysaccharide; type: cell-based, Sprague-Dawley rat; settings: 100 ng/ml lipopolysaccharide co-treated with 0.1, 1 uM, 24 hours
TNF-alpha mRNA = test: RT-PCR of TNF-alpha mRNA expression in primary microglia cells activated by lipopolysaccharide; type: cell-based, Sprague-Dawley rat; settings: 100 ng/ml lipopolysaccharide co-treated with 0.1, 1 uM, 24 hours
iNOS = test: Western blot of iNOS expression in primary microglia cells activated by lipopolysaccharide; type: cell-based, Sprague-Dawley rat; settings: 100 ng/ml lipopolysaccharide co-treated with 0.1, 1 uM, 24 hours
Description: (§3) Western blot analysis was performed to investigate the inhibition of iNOS expression by acetylshikonin.
(§4) The primary microglia cells cultured in DMEM supplemented with 10% FBS and 1% penicillin-streptomycin were distributed in a 6 well plate at the concentration of 4×10^6 cells/well, followed by culture for 24 hours. 100 ng/ml of lipopolysaccharide and 0.1, 1 uM of acetylshikonin were co-treated thereto, followed by activation of the cells for 24 hours. The control group was not treated with lipopolysaccaride. After 24 hours of activation, the culture medium was discarded and the cells were washed with cold PBS, to which trypsin was treated. 1 ml of PBS containing the cells was obtained, followed by centrifugation at 12,000 rpm for 2 minutes to separate the cells. The cells were loaded in 50 μl of triple lysis buffer to decompose all the cell membranes and then centrifugation was performed at 12,000 rpm for 30 minutes to obtain supernatant, a protein layer. The obtained supernatant was diluted and protein was quantified by Bradford method. After quantification, an equal amount of protein proceeded onto 8% polyacrylamide gel electrophoresis. The separated proteins from the electrophoresis were transferred onto Hybond ECL nitrocellulose membrane, leading to the reaction with primary and secondary antibodies of iNOS and IL-1beta. ECL examination was performed.

IL-1beta = test: Western blot of IL-1beta expression in primary microglia cells activated by lipopolysaccharide; type: cell-based, Sprague-Dawley rat; settings: 100 ng/ml lipopolysaccharide co-treated with 0.1, 1 uM, 24 hours
Description: as §3, §4

[4] = 24 hours, 0.5 mM positive control
[5] = 24 hours, 0.1, 0.5 and 1 uM tested, inhibition stated at 1 uM

| SMILES | NO generation [1, 4] | NO generation [2, 4] | protective effect on brain tissue damage, compared with the control ([3]; 1 mg/kg orally) | protective effect on brain tissue damage, compared with the control ([3]; 3 mg/kg orally) | NO generation [1, 5] | NO generation [2, 5] | expression of mRNA of iNOS (iNOS mRNA) | expression of mRNA of IL-1beta (IL-1beta mRNA) | expression of mRNA of TNF-alpha (TNF-alpha mRNA) | expression of iNOS (protein) (iNOS) | expression of IL-1beta (protein) (IL-1beta) |
| --- | --- | --- | --- | --- | --- | --- | --- | --- | --- | --- | --- |
| CNC(=N)NCCC[C@H](N)C(=O)O [positive control, N super(G)-monomethyl-L-arginine, reference compound] | inhibition of NO generation | inhibition of NO generation |  |  |  |  |  |  |  |  |  |
| CC(=O)O[C@H](CC=C(C)C)C1=CC(=O)c2c(O)ccc(O)c2C1=O [acetylshikonin] |  |  | ~46.88% | 68.75% | inhibited the generation of nitric oxide dose dependently; also recorded: inhibition of NO generation | inhibited the generation of nitric oxide dose dependently; also recorded: inhibition of NO generation | inhibited | inhibited | inhibited | inhibited | inhibited |
